How the values were obtained:
Test in all cases: relative viability (nuclei count vs DMSO), 5 days (fraction); higher = more cells survive
CUDC-101 + Linsitinib = compound: C#Cc1cccc(Nc2ncnc3cc(OC)c(OCCCCCCC(=O)NO)cc23)c1 [CUDC-101] + C[C@]1(O)C[C@@H](c2nc(-c3ccc4ccc(-c5ccccc5)nc4c3)c3c(N)nccn32)C1 [Linsitinib] (partner 1 µM)
Summary of the method: (§1)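 The day after seeding in 1536-well plates, lung cancer cell lines were treated by pin tool with a single drug, or with a fixed anchor-drug dose together with five library-drug doses (not always all listed) in √10 steps. After 5 days, a combined fix-and-stain solution (final 0.05% Triton X-100, 1% formaldehyde, 1 ug/ml Hoechst) was added. Nuclei counted on 4× images gave relative viability as treated counts over vehicle counts, reported as the median of duplicate plates.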

[1] = compound: C1=CC=C2C(=C1)N=C(S2)C(C#N)C3=NC(=NC=C3)NCCC4=CN=CC=C4 + Cc1cc(Nc2cc(N3CCN(C)CC3)nc(Sc3ccc(NC(=O)C4CC4)cc3)n2)n[nH]1 [Tozasertib] (partner 0.1 µM)
Summary of the method: as §1

CUDC-101 + Phenformin = compound: C#Cc1cccc(Nc2ncnc3cc(OC)c(OCCCCCCC(=O)NO)cc23)c1 [CUDC-101] + N=C(N)NC(=N)NCCc1ccccc1 [Phenformin] (partner 250 µM)
Summary of the method: as §1

CUDC-101 + Navitoclax = compound: C#Cc1cccc(Nc2ncnc3cc(OC)c(OCCCCCCC(=O)NO)cc23)c1 [CUDC-101] + CC1(C)CCC(c2ccc(Cl)cc2)=C(CN2CCN(c3ccc(C(=O)NS(=O)(=O)c4ccc(N[C@H](CCN5CCOCC5)CSc5ccccc5)c(S(=O)(=O)C(F)(F)F)c4)cc3)CC2)C1 [Navitoclax] (partner 0.5 µM)
Summary of the method: as §1

Cell Line | relative viability (CUDC-101 + Linsitinib; first compound 0.01 µM) | relative viability (CUDC-101 + Linsitinib; first compound 0.03162 µM) | relative viability (CUDC-101 + Linsitinib; first compound 0.1 µM) | relative viability (CUDC-101 + Linsitinib; first compound 0.3162 µM) | relative viability (CUDC-101 + Linsitinib; first compound 1 µM) | relative viability ([1]; first compound 0.005 µM) | relative viability ([1]; first compound 0.01581 µM) | relative viability ([1]; first compound 0.05 µM) | relative viability ([1]; first compound 0.1581 µM) | relative viability ([1]; first compound 0.5 µM) | relative viability (CUDC-101 + Phenformin; first compound 0.01 µM) | relative viability (CUDC-101 + Phenformin; first compound 0.03162 µM) | relative viability (CUDC-101 + Phenformin; first compound 0.1 µM) | relative viability (CUDC-101 + Phenformin; first compound 0.3162 µM) | relative viability (CUDC-101 + Phenformin; first compound 1 µM) | relative viability (CUDC-101 + Navitoclax; first compound 0.01 µM) | relative viability (CUDC-101 + Navitoclax; first compound 0.03162 µM) | relative viability (CUDC-101 + Navitoclax; first compound 0.1 µM) | relative viability (CUDC-101 + Navitoclax; first compound 0.3162 µM) | relative viability (CUDC-101 + Navitoclax; first compound 1 µM)
EKVX | 1.17 | 0.84 | 0.938 | 1.07 | 0.709 | 0.481 | 0.468 | 0.429 | 0.498 | 0.336 | 0.255 | 0.229 | 0.211 | 0.244 | 0.222 | 0.972 | 0.977 | 0.874 | 0.941 | 0.593
NCI-H1650 |  |  |  |  |  | 0.289 | 0.405 | 0.391 | 0.377 | 0.315 | 0.405 | 0.313 | 0.36 | 0.452 | 0.188 | 1.22 | 0.967 | 1.28 | 1.1 | 0.85
NCI-H1703 |  | 0.559 | 0.636 | 1.15 | 0.745 |  |  |  |  |  |  |  |  |  |  | 0.968 |  | 1.21 | 1.59 | 0.794
NCI-H727 | 0.204 | 0.207 | 0.308 | 0.396 | 0.242 | 0.629 | 0.674 | 0.51 | 0.512 | 0.686 | 0.591 | 0.476 | 0.297 | 0.604 | 0.362 | 0.377 | 0.413 | 0.417 | 0.304 | 0.269
NCI-H838 | 1.08 | 0.85 | 1.08 | 1.06 | 0.898 | 0.28 | 0.289 | 0.243 | 0.282 | 0.223 | 0.64 | 0.564 | 0.696 | 0.712 | 0.404 | 1.23 | 1.1 | 1.3 | 1.21 | 0.985
NCI-H1944 | 1.27 | 0.898 | 1.14 | 1.05 | 0.849 | 0.275 | 0.255 | 0.25 | 0.269 | 0.24 | 0.218 | 0.192 | 0.181 | 0.193 | 0.151 | 1.02 | 1.03 | 1.01 | 1.09 | 0.861
SK-LU-1 | 1.17 | 0.942 | 1.08 | 0.868 | 0.773 | 0.293 | 0.344 | 0.33 | 0.309 | 0.299 | 0.497 | 0.441 | 0.576 | 0.593 | 0.493 | 1.03 | 0.774 | 0.852 | 0.662 | 0.489
NCI-H2170 |  |  |  |  |  | 0.513 | 0.759 | 0.661 | 0.81 | 0.636 | 0.407 | 0.377 | 0.459 | 0.439 | 0.375 | 0.628 | 0.636 | 0.648 | 0.599 | 0.313
NCI-H650 | 0.992 | 0.876 | 1.04 | 0.662 | 0.688 | 0.633 |  | 0.708 | 0.742 | 0.644 | 0.453 | 0.475 | 0.465 | 0.385 | 0.38 |  |  |  |  | 
EBC-1 | 0.954 | 0.904 | 0.766 | 0.762 | 0.623 |  |  |  |  |  |  |  |  |  |  | 0.41 | 0.377 | 0.365 | 0.184 | 0.144
